Source: patent US5599793A, “Antithromobotic agents” (Eli Lilly and Company, priority 1995, dated 1997)

Key:
Human plasma [1] = experiment: Human plasma anticoagulation, thrombin time (TT); assay type: biochemical; conditions: concentration required to double the thrombin time, linear extrapolation
[2] = Index of bioavailability (% Relative Activity from plasma TT AUC, oral vs i.v.); assay type: in vivo; conditions: dose-adjusted AUC of plasma TT, p.o. versus i.v. bolus
Procedure: Plasma thrombin time (TT) and activated partial thromboplastin time (APTT) are measured with a fibrometer. Blood is sampled from a jugular catheter and collected in syringe containing sodium citrate (3.8%, 1 part to 9 parts blood). To measure TT, rat plasma (0.1 mL) is mixed with saline (0.1 mL) and bovine thrombin (0.1 mL, 30 U/mL in TRIS buffer; Parke Davis) at 37° C. For APTT, plasma (0.1 mL) and APTT solution (0.1 mL, Organon Teknika) are incubated for 5 minutes (37° C.) and CaCl2 (0.01 mL, 0.025M) is added to start coagulation. Assays are done in duplicate and averaged.
A measure of bioactivity, plasma thrombin time (TT), served as a substitute for the assay of parent compound on the assumption that increments in TT resulted from thrombin inhibition by parent only. The time course of the effect of the thrombin inhibitor upon TT is determined after i.v. bolus administration to anesthetized rats and after oral treatment of fasted conscious rats. Due to limitations of blood volume and the number of points required to determine the time course from time of treatment to the time when the response returned to pretreatment values, two populations of rats are used. Each sample population represented alternating sequential time points. The average TT over the time course is used to calculate area under the curve (AUC). The index of bioavailability is calculated by the formula shown below and is expressed as percent relative activity.
The area under the curve (AUC) of the plasma TT time course is determined and adjusted for the dose. This index of bioavailability is termed "% Relative Activity" and is calculated as [formula] Compounds
Compound solutions are prepared fresh daily in normal saline and are injected as a bolus or are infused starting 15 minutes before and continuing throughout the experimental perturbation which is 15 minutes in the arteriovenous shunt model and 60 minutes in the FeCl3 model of arterial injury and in the spontaneous thombosis model. Bolus injection volume is 1 mL/kg for i.v., and 5 mL/kg for p.o. and infusion volume is 3 mL/hr.

Human plasma [3] = experiment: Human plasma anticoagulation, prothrombin time (PT); assay type: biochemical; conditions: concentration required to double the PT, linear extrapolation
Human Thrombin = Human Thrombin (Homo sapiens, UniProt P00734); experiment: Inhibition of amidase activity of thrombin (Kass); assay type: biochemical; conditions: apparent association constant, mean over a range of concentrations
Human plasma [4] = experiment: Human plasma anticoagulation, activated partial thromboplastin time (APTT); assay type: biochemical; conditions: concentration required to double the APTT, linear extrapolation

Row | % oral/i.v. activity (Rat) [2] [%] | Enzyme Kass, Human Thrombin (Human Thrombin) | Enzyme Kass, Human Thrombin (Human Thrombin; HCl) | Compound | 2x Clotting time, TT (Human plasma [1]) [ng/mL] | 2x Clotting time, PT (Human plasma [3]) | 2x Clotting time, APTT (Human plasma [4]) | 2x Clotting time, TT (Human plasma [1]; HCl) [ng/mL] | 2x Clotting time, PT (Human plasma [3]; HCl) | 2x Clotting time, APTT (Human plasma [4]; HCl) [ng/mL]
1 | 6 | – | 1,630 L/mol × 10^6 | Cl.Cl.N=C(N)NCCCC(C=O)NC(=O)C1CC2CCCCC2N1C(=O)C1NCCC2CCCCC21 [Example 20, D-1-cis-Piq-cis-Ohi-ArgH.2 HCl] | – | – | – | 19 | 1,452 ng/mL | 627
2 | 13 | 37 L/mol × 10^6 | – | Cl.Cl.Cl.N=C(N)NCCC[C@@H](C=O)NC(=O)[C@@H]1C[C@H](Oc2cccnc2)CN1C(=O)[C@H]1CCCCN1 (relative stereo) [Example 9, D-hPro-Pro(4-cis-(3-pyridyloxy))-ArgH.3 HCl] | 50 | 3,100 ng/mL | 880 ng/mL | – | – | –
3 | 20 | 50 L/mol × 10^6 | – | Cl.Cl.N=C(N)NCCC[C@H](C=O)NC(=O)[C@@H]1C[C@H](Oc2ccccc2)CN1C(=O)[C@H]1CCCCN1 (relative stereo) [Example 8, D-homoprolyl-L-cis-4-phenoxy-L-prolyl-D-argininal dihydrochloride] | 70 | 1,900 ng/mL | 520 ng/mL | – | – | –
4 | 20 | 110 L/mol × 10^6 | – | Cl.Cl.N=C(N)NCCC[C@@H](C=O)NC(=O)[C@@H]1C[C@H](Cc2ccccc2)CN1C(=O)[C@H]1CCCCN1 (relative stereo) [Example 5, D-hPro-Pro(4-cis-benzyl)-ArgH.2 HCl] | 80 | 1,600 ng/mL | 510 ng/mL | – | – | –
5 | 9 | 28 L/mol × 10^6 | – | Cl.Cl.Cl.N=C(N)NCCC[C@@H](C=O)NC(=O)[C@@H]1C[C@H](Oc2ccc(N)cc2)CN1C(=O)[C@H]1CCCCN1 (relative stereo) [Example 11, D-hPro-Pro(4-cis-(4-NH2-phenoxy))-ArgH.3 HCl] | 96 | 5,900 ng/mL | 1,400 ng/mL | – | – | –
6 | 5 | 230 L/mol × 10^6 | – | Cl.Cl.N=C(N)NCCC[C@@H](C=O)NC(=O)[C@@H]1C[C@H](Oc2ccccc2)CN1C(=O)C1NCCC2CCCCC21 (relative stereo) [Example 15, D-1-Piq-Pro(4-cis-phenoxy)-ArgH.2 HCl] | 28 | 1,600 ng/mL | 940 ng/mL | – | – | –

More lines, now with the values behind:

Row | Compound | % oral/i.v. activity (Rat) [2] [%] | Enzyme Kass, Human Thrombin (Human Thrombin) | Enzyme Kass, Human Thrombin (Human Thrombin; HCl) | 2x Clotting time, TT (Human plasma [1]) [ng/mL] | 2x Clotting time, PT (Human plasma [3]) | 2x Clotting time, APTT (Human plasma [4]) | 2x Clotting time, TT (Human plasma [1]; HCl) [ng/mL] | 2x Clotting time, PT (Human plasma [3]; HCl) | 2x Clotting time, APTT (Human plasma [4]; HCl) [ng/mL]
7 | Cl.Cl.N=C(N)NCCC[C@@H](C=O)NC(=O)[C@@H]1CC2CCCCC2N1C(=O)[C@H]1CCCCN1 (relative stereo) [Example 7, N-[(1-D-homoprolyl-cis-octahydro-1H-indol-2(S)-yl)carbonyl]-L-argininal dihydrochloride] | 50 | 340 L/mol × 10^6 | – | 37 | 1,500 ng/mL | 450 ng/mL | – | – | –
8 | CC[C@H]1C[C@@H](C(=O)N[C@H](C=O)CCCNC(=N)N)N(C(=O)[C@H]2CCCCN2)C1.Cl.Cl (relative stereo) [Example 2, D-homoprolyl-L-cis-4-ethyl-prolyl-L-argininal dihydrochloride] | 50 | 230 L/mol × 10^6 | – | 51 | 1,500 ng/mL | 460 ng/mL | – | – | –
9 | CCC[C@H]1C[C@@H](C(=O)N[C@H](C=O)CCCNC(=N)N)N(C(=O)[C@H]2CCCCN2)C1.Cl.Cl (relative stereo) [Example 3, D-hPro-Pro(4-cis-n-propyl)-ArgH.2 HCl] | 45 | 27 L/mol × 10^6 | – | 120 | 2,900 ng/mL | 610 ng/mL | – | – | –
10 | CCS(=O)(=O)N[C@@H](C(=O)N1[C@H](C(=O)N[C@H](C=O)CCCNC(=N)N)C[C@@H]2CCCC[C@@H]21)c1ccccc1.Cl (relative stereo) [Example 22, EtSO2 -D-Phg-cis-Ohi-ArgH.HCl] | 30 | 6,170 L/mol × 10^6 | – | 9 | 1,208 ng/mL | 332 ng/mL | – | – | –
11 | C[C@H]1C[C@@H](C(=O)N[C@H](C=O)CCCNC(=N)N)N(C(=O)[C@H]2CCCCN2)C1.Cl.Cl (relative stereo) [Example 1, D-homoprolyl-L-cis-4-methyl-prolyl-L-argininal dihydrochloride] | 47 | 220 L/mol × 10^6 | – | 60 | 1,700 ng/mL | 510 ng/mL | – | – | –
